{
  "source": "patent US8202886B2",
  "about": "“Small molecule E2F inhibitor” (H. Lee Moffitt Cancer Center and Research Institute, Inc., priority 2008, dated 2012)",
  "key": {"H460": {"system": "H460", "assay": "Western blots of treated H460 cells", "type": "cell-based", "procedure": "In order to further examine the mechanism of action of the therapeutic compound four lung cancer cell lines were treated with various concentrations of drug and western blots performed on cell extracts after 24 hr."}, "[1]": {"system": "8226-s, 8226-dox40 and 8226-MR20", "assay": "PARP cleavage western in drug sensitive and resistant 8226 lines", "type": "cell-based, human", "conditions": "24 hours; 10 μM cisplatin or 10, 20 or 40 μM HLM006474", "procedure": "(§1) Cells were collected 24 hours post drug exposure and extracts subjected to western blotting using antibodies to the indicated proteins. Cleavage of PARP indicates apoptosis."}, "breast cancer cell lines": {"system": "breast cancer cell lines", "assay": "Western blots of Rb family members in breast cancer cell lines", "type": "cell-based", "conditions": "40 micromolar, 24 hrs"}, "8226-MR20": {"system": "8226-MR20", "assay": "MTS viability assay, 8226-MR20", "type": "cell-based", "conditions": "Homo sapiens", "procedure": "as §1\nTo examine its effect on a range of commonly studied cell lines, the inventors utilized standard MTS assays to quantify cell viability following the therapeutic compound treatment. Cytotoxicity was determined using MTS assays, which were conducted using a CellTiter 96® AQueous One Cell Proliferation Assay Kit (Promega) following the published protocol. Cells in 0.1 ml volume were plated in triplicate into 96-well plates, 1×10^4 cells/well. the therapeutic compound was added and after 24 hours of incubation at 37° C., 20 μl of MTS dye was added to each well. Plates were read at 490 nm following 4 hrs MTS reaction time. The concentration of drug which produced a 50% inhibition of growth (IC50) was calculated from linear regression analysis of the linear portion of the growth curves."}, "A375 cells [2]": {"system": "A375 cells", "assay": "MTS proliferation/viability over time", "type": "cell-based, human", "conditions": "40 μM, 24-, 48- and 72-hrs", "procedure": "To examine its effect on a range of commonly studied cell lines, the inventors utilized standard MTS assays to quantify cell viability following the therapeutic compound treatment. Cytotoxicity was determined using MTS assays, which were conducted using a CellTiter 96® AQueous One Cell Proliferation Assay Kit (Promega) following the published protocol. […] Plates were read at 490 nm following 4 hrs MTS reaction time. The concentration of drug which produced a 50% inhibition of growth (IC50) was calculated from linear regression analysis of the linear portion of the growth curves."}, "[3]": {"system": "human foreskin fibroblasts (HFF)", "assay": "Apo-BrdU TUNEL apoptosis assay, HFF", "type": "cell-based", "conditions": "40-μM, 24-hrs", "source_text": "(§2) To determine if treatment with the therapeutic compound contributes to apoptosis, Cells were detached from culture plates by trypsin treatment, washed twice with PBS, and fixed in 70% ethanol. Fixed cells were washed twice with PBS and treated with RNase A and propidium iodide (PI). PI staining was examined using a Becton-Dickinson FACScan instrument and Cell Quest software. TUNEL assay for apoptosis utilized a Pharmingen APO-BRDU Kit. MTS (3-(4,5-dimethylthiazol-2-yl)-5-(3-carboxymethoxyphenyl)-2-(4-sulfophenyl)-2H-tetrazolium, inner salt) assays were conducted using a CellTiter 96® AQueous One Cell Proliferation Assay Kit (Promega).\n(§3) A375, MDA-MB-231 (231), MCF-7 and human foreskin fibroblasts (HFF) cells were treated with 40-μM of the therapeutic compound for 24-hrs and subjected to a FACS based terminal deoxynucleotidyl transferase (TUNEL) assay (Apo-BrdU Kit from BD Pharmingen)."}, "WT MEFS": {"system": "WT MEFS", "assay": "Apoptosis (ApoBrdU, PARP western) in WT MEFs", "type": "cell-based, mouse", "procedure": "FIG. 12A: MEFS derived from sibling WT and E2F4^−/− mice were treated for 24-hrs with the indicated doses of HLM006474. Apoptosis was determined using ApoBrdU (BD Pharmingen).\nFIG. 12B: MEFS derived from sibling WT and E2F4^−/− mice were treated as in A subjected to western blotting using a PARP antibody or E2F4 antibody. PARP cleavage (as indicated by the arrow) is an independent measure of apoptosis.\nTo determine if the effect of the therapeutic compound is dependent upon E2F4, the inventors compared the therapeutic compound response of immortalized MEFs derived from E2F4-deficient mice with MEFS derived from wildtype siblings."}, "MDA-MB-231": {"system": "MDA-MB-231", "assay": "Apo-BrdU TUNEL apoptosis assay, MDA-MB-231", "type": "cell-based, human", "conditions": "40-μM, 24-hrs", "source_text": "as §2, §3"}, "A375 cells [4]": {"system": "A375 cells", "assay": "Western blots of treated A375 cells", "experimental": "Actin served as a loading control in these experiments and in those that follow.\nTo determine the activity of the therapeutic compound over time, A375 cells were treated with 40-μM of compound and examined at 0-, 3-, 6-, 9-, 12-, 18- and 24-hrs by EMSA and western (FIG. 11A).\nTo further examine the timing of the therapeutic compound-induced apoptosis, A375 cells were treated with 40-μM the therapeutic compound, harvested and fixed at various time periods.\nTo compare the mechanism of the therapeutic compound-induced apoptosis with that of several standard DNA damaging drugs, A375 cells were treated for 24-hrs with 40-μM the therapeutic compound, 10 μM cisplatin, 10 nM doxorubicin, 10 μM VP16 (etoposide) or with two-drug combinations.\nWestern blots utilized 50 μg of whole cell extract per lane as previously described. […] Detection of proteins was accomplished using horseradish-peroxidase-conjugated secondary antibodies and enhanced chemiluminescence (ECL) purchased from Amersham."}, "A375 melanocytes": {"system": "A375 melanocytes", "assay": "Three-dimensional skin model of A375 proliferation and invasion", "type": "cell-based, human", "conditions": "for activated caspase-3 positive cells (IHC): day 2, 5 or 8; for proliferation and invasion of melanocytes (S-100 IHC): day 12, 16 and 20", "procedure": "Culture inserts of differentiated full-thickness 3D skin reconstruction model of A375 melanoma cells were purchased from MatTek (Ashland, Mass.). These were prepared by culturing mixed suspensions of normal human epidermal keratinocytes and A375 cells (1:10 ratio) on fibroblast contracted collagen gels and allowing differentiation for approximately one week in serum free media to form a 3D skin-like structure. These cultures were treated with 0, 40 or 80 μM 6474 and harvested after 0, 2, 5, 8, 12, 16 and 20 days.\nIn this model, the highly metastatic A375 melanocytes were mixed with normal human keratinocytes and seeded on fibroblast-contracted collagen gels. The mixed cells were then induced to differentiate in serum free media to form three-dimensional, highly differentiated, full thickness skin-like tissues. After seven days of differentiation the cells were then treated with 0 (DMSO carrier alone), 40 or 80 μM the therapeutic compound. The three-dimensional models were then cultured for 2, 5, 8, 12, 16 and 20 days. At the appointed time, 3D cultures were fixed in formalin, paraffin embedded, sectioned and either stained with H&E or processed for immunohistochemistry (1HC) using antibodies against S-100 to measure expression of a melanocyte marker, E2F4 to determine if it were down regulated as in 2D culture, activated caspase-3 to measure apoptosis and […] to measure the proliferative index."}, "231 cells": {"system": "231 cells", "assay": "RNase protection assay, 231", "type": "cell-based, human", "procedure": "The indicated breast cancer lines were treated with 40 micromolar the therapeutic compound and subjected RNAse protection assay 24 hrs later using the indicated probes.\nAn RNase protection assay was performed to determine if downregulation of the Rb family members at the level of mRNA could account for the downregulation of the proteins. Two breast cancer cell lines were examined at 0, 3, 6, 9, 18 and 24 hr following the therapeutic compound treatment (FIG. 21)."}, "lung cancer cell lines": {"system": "lung cancer cell lines", "assay": "CT Blue Viability Assay, drug combinations", "type": "cell-based", "conditions": "combination with taxol", "procedure": "The indicated lung cancer cell lines were exposed to taxol, cisplatin, or gemacitabine alone, the therapeutic compound alone, or a combination as indicated. These experiments and analysis were performed in the Experimental Therapeutics Core using the CT Blue Viability Assay."}, "[5]": {"conditions": "40 μM, listed as the therapeutic compound"}},
  "data": [
    {"smiles": "CCOc1ccc(C(Nc2ccccn2)c2ccc3ccc(C)nc3c2O)cc1C", "note": "(centres unmarked) [HLM006474]", "values": [
      {"measurement": "Bcl-2 or Mcl-2 (western)", "setting": "H460; H460, 40-μM", "value": "did not show changes"},
      {"measurement": "sensitivity (downregulation of E2F1 and E2F4, PARP cleavage)", "setting": "H460; H460, various concentrations, 24 hr", "value": "very sensitive"},
      {"measurement": "PARP cleavage (apoptosis) in sensitive versus resistant lines", "setting": "[1]", "value": "very similar"},
      {"measurement": "Rb and p107 proteins (western)", "setting": "breast cancer cell lines", "value": "dramatically down regulated"},
      {"measurement": "IC50", "setting": "8226-MR20", "value": "46 ± 6", "unit": "µM"},
      {"measurement": "cellular proliferation/viability (MTS)", "setting": "A375 cells [2]", "value": "significantly affected"},
      {"measurement": "apoptosis (TUNEL)", "setting": "[3]", "value": "did not induce an obvious increase in apoptosis"},
      {"measurement": "level of apoptosis in WT cells as compared to E2F4-deficient cells", "setting": "WT MEFS; 24-hrs, ApoBrdU", "value": "two-fold increase"},
      {"measurement": "concentration at which PARP cleavage is evident", "setting": "WT MEFS; E2F4 proficient MEFs", "value": 20, "unit": "µM"},
      {"measurement": "apoptosis (TUNEL)", "setting": "MDA-MB-231", "value": "dramatic induction of apoptosis"},
      {"measurement": "expression of E2F4 or E2F1 (western)", "setting": "A375 cells [4]; 9-hrs of treatment", "value": "does not significantly affect"},
      {"measurement": "Mcl-1 (western)", "setting": "A375 cells [4]; 24-hrs, 40-μM", "value": "may slightly repress Mcl-1"},
      {"measurement": "PARP cleavage (western)", "setting": "A375 cells [4]; 24-hrs, 40-μM", "value": "potent inducer of PARP cleavage"},
      {"measurement": "time at which PARP cleavage indicates significant apoptosis", "setting": "A375 cells [4]; 40-μM", "value": "≤ 12", "unit": "h"},
      {"measurement": "time at which decrease in total E2F4 protein became apparent", "setting": "A375 cells [4]; 40-μM", "value": "up to 24 hrs"},
      {"measurement": "effects on the other cells (fibroblasts and keratinocytes) of the 3D tissue", "setting": "A375 melanocytes", "value": "no obvious deleterious effects"},
      {"measurement": "E2F4 levels (IHC)", "setting": "A375 melanocytes; 40 μM", "value": "clearly reduced"},
      {"measurement": "Ki-67 staining", "setting": "A375 melanocytes; 40 μM, day 2, 5 and 8", "value": "decrease in the number of proliferative cells"},
      {"measurement": "activated caspase-3 positive cells (IHC)", "setting": "A375 melanocytes; 40 μM", "value": "no detectable increase in apoptotic cells"},
      {"measurement": "activated caspase-3 positive cells (IHC)", "setting": "A375 melanocytes; [5]", "value": "no significant difference"},
      {"measurement": "proliferation and invasion of melanocytes (S-100 IHC)", "setting": "A375 melanocytes; 40 μM", "value": "very rare"},
      {"measurement": "proliferation and invasion of melanocytes (S-100 IHC)", "setting": "A375 melanocytes; [5]", "value": "significantly inhibited the proliferation and subsequent invasion"},
      {"measurement": "melanocyte proliferation (H&E)", "setting": "A375 melanocytes; 80 μM", "value": "essentially no melanocyte proliferation"},
      {"measurement": "Rb at the mRNA level", "setting": "231 cells", "value": "no significant change"},
      {"measurement": "p21 mRNA", "setting": "231 cells", "value": "upregulated"},
      {"measurement": "synergy with taxol", "setting": "lung cancer cell lines", "value": "synergizes significantly"}
    ]}
  ]
}
